Source: patent publication US20230391768A2, “IMIDAZOPYRIDINE DERIVATIVES AND AZA-IMIDAZOPYRIDINE DERIVATIVES AS JANUS KINASE 2 INHIBITORS AND USES THEREOF” (Dana-Farber Cancer Institute, Inc., priority 2018, published 2023)

Legend:
Assay in all cases: KINOMEscan
Format in all cases: binding
Conditions in all cases: read-out: percent of control
EGFR(L858R) = EGFR(L858R) (Homo sapiens (Human), UniProt P00533, L858R)
Experimental: (§1) In vitro profiling of Compound I-2 (1 μM) was performed using the DiscoveRx KINOMEscan® platform.

[1] = biological target: RSK1 (Kin.Dom.2-C-terminal) (Homo sapiens (Human), UniProt Q15418)
Experimental: as §1

CSNK1G3 = CSNK1G3 (Homo sapiens (Human), UniProt Q9Y6M4)
Experimental: as §1

CSF1R = CSF1R (Homo sapiens (Human), UniProt P07333)
Experimental: as §1

FLT3 (K663Q) = FLT3 (K663Q) (Homo sapiens (Human), UniProt P36888, K663Q)
Experimental: as §1

CHEK2 = CHEK2 (Homo sapiens (Human), UniProt O96017)
Experimental: as §1

PIP5K1C = PIP5K1C (Homo sapiens (Human), UniProt O60331)
Experimental: as §1

CDK2 = CDK2 (Homo sapiens (Human), UniProt P24941)
Experimental: as §1

CAMK2D = CAMK2D (Homo sapiens (Human), UniProt Q13557)
Experimental: as §1

[2] = biological target: RSK3 (Kin.Dom.1-N-terminal) (Homo sapiens (Human), UniProt Q15349)
Experimental: as §1

PAK7 = PAK7 (Homo sapiens (Human), UniProt Q9P286)
Experimental: as §1

AKT2 = AKT2 (Homo sapiens (Human), UniProt P31751)
Experimental: as §1

LRRK2(G2019S) = LRRK2(G2019S) (Homo sapiens (Human), UniProt Q5S007, G2019S)
Experimental: as §1

CSNK1G2 = CSNK1G2 (Homo sapiens (Human), UniProt P78368)
Experimental: as §1

GFR(L747-S752del, P753S) = biological target: GFR(L747-S752del, P753S (Homo sapiens (Human), UniProt P00533, DEL747-752/P753S))
Experimental: as §1

STK39 = STK39 (Homo sapiens (Human), UniProt Q9UEW8)
Experimental: as §1

CAMK1 = CAMK1 (Homo sapiens (Human), UniProt Q14012)
Experimental: as §1

[3] = biological target: RSK3 (Kin.Dom.2-C-terminal) (Homo sapiens (Human), UniProt Q15349)
Experimental: as §1

PCTK2 = PCTK2 (Homo sapiens (Human), UniProt Q00537)
Experimental: as §1

JNK1 = JNK1 (Homo sapiens (Human), UniProt P45983)
Experimental: as §1

S6K1 = S6K1 (Homo sapiens (Human), UniProt P23443)
Experimental: as §1

FLT1 = FLT1 (Homo sapiens (Human), UniProt P17948)
Experimental: as §1

PIP5K2B = PIP5K2B (Homo sapiens (Human), UniProt P78356)
Experimental: as §1

EPHB2 = EPHB2 (Homo sapiens (Human), UniProt P29323)
Experimental: as §1

ALK = ALK (Homo sapiens (Human), UniProt Q9UM73)
Experimental: as §1

RIPK4 = RIPK4 (Homo sapiens (Human), UniProt P57078)
Experimental: as §1

MEK2 = MEK2 (Homo sapiens (Human), UniProt P36507)
Experimental: as §1

SgK110 = SgK110 (Homo sapiens (Human), UniProt P0C264)
Experimental: as §1

HASPIN = HASPIN (Homo sapiens (Human), UniProt Q8TF76)
Experimental: as §1

MAP3K2 = MAP3K2 (Homo sapiens (Human), UniProt Q9Y2U5)
Experimental: as §1

[4] = biological target: ABL1(F317I)-phosphorylated (Homo sapiens (Human), UniProt P00519, F317I)
Experimental: as §1

LIMK2 = LIMK2 (Homo sapiens (Human), UniProt P53671)
Experimental: as §1

ACVR1B = ACVR1B (Homo sapiens (Human), UniProt P36896)
Experimental: as §1

PHKG1 = PHKG1 (Homo sapiens (Human), UniProt Q16816)
Experimental: as §1

ABL2 = ABL2 (Homo sapiens (Human), UniProt P42684)
Experimental: as §1

PIK3CA(M1043I) = PIK3CA(M1043I) (Homo sapiens (Human), UniProt P42336, M1043I)
Experimental: as §1

BMPR1A = BMPR1A (Homo sapiens (Human), UniProt P36894)
Experimental: as §1

TNNI3K = TNNI3K (Homo sapiens (Human), UniProt Q59H18)
Experimental: as §1

ALK, sequence (Q9UM73 19-1620): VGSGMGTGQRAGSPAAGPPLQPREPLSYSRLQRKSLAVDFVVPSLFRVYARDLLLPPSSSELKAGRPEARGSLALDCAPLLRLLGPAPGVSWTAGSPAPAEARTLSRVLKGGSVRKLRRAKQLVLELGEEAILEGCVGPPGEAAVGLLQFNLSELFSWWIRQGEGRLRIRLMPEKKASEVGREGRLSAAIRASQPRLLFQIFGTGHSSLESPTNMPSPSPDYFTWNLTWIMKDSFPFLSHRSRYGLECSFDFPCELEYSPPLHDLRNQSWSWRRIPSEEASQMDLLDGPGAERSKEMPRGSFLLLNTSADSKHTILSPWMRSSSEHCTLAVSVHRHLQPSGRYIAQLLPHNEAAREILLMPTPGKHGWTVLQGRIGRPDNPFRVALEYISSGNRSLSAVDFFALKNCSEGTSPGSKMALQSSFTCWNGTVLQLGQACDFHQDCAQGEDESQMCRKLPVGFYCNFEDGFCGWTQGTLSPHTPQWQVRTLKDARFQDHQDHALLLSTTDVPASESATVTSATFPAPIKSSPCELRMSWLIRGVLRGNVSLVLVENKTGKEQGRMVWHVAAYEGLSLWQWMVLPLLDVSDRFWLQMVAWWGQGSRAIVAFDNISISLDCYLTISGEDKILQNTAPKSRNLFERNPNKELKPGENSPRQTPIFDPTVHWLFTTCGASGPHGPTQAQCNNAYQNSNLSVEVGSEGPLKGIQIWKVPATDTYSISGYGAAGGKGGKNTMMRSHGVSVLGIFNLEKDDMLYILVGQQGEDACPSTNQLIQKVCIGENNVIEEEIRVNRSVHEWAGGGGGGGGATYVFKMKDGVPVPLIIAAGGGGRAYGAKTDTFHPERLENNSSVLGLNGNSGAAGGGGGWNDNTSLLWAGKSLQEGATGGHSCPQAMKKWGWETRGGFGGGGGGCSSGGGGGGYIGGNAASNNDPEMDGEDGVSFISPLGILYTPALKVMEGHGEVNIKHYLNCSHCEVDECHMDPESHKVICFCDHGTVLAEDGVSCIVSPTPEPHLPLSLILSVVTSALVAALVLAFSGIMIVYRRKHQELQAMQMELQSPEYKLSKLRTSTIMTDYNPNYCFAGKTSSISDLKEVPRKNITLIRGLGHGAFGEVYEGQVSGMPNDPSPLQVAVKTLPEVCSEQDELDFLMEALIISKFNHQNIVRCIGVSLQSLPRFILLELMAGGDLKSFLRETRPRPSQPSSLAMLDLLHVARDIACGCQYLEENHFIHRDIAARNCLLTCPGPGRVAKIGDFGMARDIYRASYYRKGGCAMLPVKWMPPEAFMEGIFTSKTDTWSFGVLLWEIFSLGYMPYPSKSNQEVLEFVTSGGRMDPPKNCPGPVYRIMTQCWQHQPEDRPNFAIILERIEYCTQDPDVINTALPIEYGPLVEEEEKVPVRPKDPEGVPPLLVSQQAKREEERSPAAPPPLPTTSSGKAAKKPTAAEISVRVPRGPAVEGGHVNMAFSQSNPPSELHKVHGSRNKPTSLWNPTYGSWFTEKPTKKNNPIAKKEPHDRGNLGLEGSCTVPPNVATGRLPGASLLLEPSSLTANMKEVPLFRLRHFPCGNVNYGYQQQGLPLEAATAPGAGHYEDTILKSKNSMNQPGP
PIP5K1C, sequence (O60331 whole entry): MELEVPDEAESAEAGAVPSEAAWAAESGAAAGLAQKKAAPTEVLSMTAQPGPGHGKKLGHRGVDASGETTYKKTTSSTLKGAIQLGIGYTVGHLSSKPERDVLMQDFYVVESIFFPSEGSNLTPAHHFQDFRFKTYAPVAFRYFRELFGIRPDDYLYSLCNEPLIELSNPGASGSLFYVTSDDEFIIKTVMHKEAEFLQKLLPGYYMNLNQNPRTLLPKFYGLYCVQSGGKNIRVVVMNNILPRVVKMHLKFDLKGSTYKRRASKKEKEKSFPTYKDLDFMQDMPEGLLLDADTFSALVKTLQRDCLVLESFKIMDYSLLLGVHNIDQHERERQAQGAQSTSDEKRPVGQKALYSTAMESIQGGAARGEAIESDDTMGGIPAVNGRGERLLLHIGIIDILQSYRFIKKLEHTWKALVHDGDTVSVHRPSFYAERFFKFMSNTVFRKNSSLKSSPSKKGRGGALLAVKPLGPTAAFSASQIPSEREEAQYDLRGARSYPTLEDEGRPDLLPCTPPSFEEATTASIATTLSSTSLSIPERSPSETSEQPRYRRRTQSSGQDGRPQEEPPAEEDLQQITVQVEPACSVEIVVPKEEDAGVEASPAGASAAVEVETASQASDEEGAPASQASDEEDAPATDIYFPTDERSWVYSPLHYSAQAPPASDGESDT
ABL2, sequence (P42684 whole entry): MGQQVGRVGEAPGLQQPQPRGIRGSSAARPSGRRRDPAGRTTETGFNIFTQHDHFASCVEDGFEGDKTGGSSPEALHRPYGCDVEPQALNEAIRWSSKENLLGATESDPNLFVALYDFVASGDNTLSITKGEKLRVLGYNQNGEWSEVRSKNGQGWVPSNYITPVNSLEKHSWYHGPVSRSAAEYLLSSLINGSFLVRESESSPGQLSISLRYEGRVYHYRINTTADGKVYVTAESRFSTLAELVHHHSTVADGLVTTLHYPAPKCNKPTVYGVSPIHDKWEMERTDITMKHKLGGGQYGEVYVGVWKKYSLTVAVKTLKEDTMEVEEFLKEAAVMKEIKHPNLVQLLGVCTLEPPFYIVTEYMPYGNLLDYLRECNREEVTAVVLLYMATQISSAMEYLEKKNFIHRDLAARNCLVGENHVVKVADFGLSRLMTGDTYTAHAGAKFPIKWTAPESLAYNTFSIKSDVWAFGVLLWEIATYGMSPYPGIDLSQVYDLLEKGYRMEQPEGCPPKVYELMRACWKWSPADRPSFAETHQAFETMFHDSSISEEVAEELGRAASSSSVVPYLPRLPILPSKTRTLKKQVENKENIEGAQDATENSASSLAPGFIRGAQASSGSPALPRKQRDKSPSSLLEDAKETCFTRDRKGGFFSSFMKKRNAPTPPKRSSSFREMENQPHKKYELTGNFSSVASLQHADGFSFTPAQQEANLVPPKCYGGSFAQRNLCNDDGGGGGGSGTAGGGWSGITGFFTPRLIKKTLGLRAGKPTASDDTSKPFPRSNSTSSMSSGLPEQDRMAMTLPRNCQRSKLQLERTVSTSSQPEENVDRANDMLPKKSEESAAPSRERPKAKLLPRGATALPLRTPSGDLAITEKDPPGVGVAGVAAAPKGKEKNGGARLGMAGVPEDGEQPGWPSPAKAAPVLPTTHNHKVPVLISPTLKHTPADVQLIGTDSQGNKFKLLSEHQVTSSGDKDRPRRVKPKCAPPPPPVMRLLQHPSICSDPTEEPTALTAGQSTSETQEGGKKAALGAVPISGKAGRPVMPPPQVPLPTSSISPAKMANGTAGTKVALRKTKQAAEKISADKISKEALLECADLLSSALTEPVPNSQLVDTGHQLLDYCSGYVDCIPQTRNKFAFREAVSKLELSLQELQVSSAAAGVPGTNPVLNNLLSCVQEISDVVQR
CAMK1, sequence (Q14012 whole entry): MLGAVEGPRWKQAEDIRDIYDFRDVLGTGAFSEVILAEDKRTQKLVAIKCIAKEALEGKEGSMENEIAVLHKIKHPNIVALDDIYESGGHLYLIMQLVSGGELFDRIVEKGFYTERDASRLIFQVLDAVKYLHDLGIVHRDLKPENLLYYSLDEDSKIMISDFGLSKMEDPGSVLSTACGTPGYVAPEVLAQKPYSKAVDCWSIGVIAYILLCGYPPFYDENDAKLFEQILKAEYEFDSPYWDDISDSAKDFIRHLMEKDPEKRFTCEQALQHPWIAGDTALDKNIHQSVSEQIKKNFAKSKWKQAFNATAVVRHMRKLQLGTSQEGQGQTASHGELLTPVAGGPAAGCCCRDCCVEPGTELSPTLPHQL
SgK110, sequence (P0C264 whole entry): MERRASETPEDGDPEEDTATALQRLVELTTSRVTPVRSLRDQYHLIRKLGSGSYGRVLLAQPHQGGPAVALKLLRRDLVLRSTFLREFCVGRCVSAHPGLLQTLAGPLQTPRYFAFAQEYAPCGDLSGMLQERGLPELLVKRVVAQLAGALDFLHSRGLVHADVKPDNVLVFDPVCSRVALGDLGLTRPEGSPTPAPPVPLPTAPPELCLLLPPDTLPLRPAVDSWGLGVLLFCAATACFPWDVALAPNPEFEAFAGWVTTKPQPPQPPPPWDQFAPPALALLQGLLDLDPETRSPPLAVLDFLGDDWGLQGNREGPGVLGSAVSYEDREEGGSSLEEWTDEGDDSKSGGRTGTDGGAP
PIP5K2B, sequence (P78356 whole entry): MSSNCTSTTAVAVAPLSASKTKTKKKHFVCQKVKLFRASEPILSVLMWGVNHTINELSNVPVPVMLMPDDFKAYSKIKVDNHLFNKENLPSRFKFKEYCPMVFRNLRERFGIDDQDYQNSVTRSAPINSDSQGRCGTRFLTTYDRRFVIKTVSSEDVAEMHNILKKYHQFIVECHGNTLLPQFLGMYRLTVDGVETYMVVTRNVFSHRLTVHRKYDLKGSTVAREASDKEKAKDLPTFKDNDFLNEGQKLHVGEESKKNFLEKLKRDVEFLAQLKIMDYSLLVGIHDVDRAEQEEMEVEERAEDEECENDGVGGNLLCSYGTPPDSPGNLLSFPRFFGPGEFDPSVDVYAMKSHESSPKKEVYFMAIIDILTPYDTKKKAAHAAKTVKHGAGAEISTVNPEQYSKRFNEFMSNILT
CSNK1G2, sequence (P78368 whole entry): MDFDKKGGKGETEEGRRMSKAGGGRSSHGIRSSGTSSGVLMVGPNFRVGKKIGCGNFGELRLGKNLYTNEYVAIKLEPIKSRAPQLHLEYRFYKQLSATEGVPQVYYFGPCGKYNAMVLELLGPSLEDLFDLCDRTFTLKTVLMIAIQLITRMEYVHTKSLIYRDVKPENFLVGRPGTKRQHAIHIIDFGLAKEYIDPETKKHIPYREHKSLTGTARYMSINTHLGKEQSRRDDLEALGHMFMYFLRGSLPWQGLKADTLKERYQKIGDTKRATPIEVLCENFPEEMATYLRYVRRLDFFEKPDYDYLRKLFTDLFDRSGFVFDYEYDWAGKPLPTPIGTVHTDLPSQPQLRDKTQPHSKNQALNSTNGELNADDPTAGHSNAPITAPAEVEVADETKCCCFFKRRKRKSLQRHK

Compound	remaining binding at 1 µM (EGFR(L858R)) [%]	remaining binding at 1 µM [1] [%]	remaining binding at 1 µM (CSNK1G3) [%]	remaining binding at 1 µM (CSF1R) [%]	remaining binding at 1 µM (FLT3 (K663Q)) [%]	remaining binding at 1 µM (CHEK2) [%]	remaining binding at 1 µM (PIP5K1C) [%]	remaining binding at 1 µM (CDK2) [%]	remaining binding at 1 µM (CAMK2D) [%]	remaining binding at 1 µM [2] [%]	remaining binding at 1 µM (PAK7) [%]	remaining binding at 1 µM (AKT2) [%]	remaining binding at 1 µM (LRRK2(G2019S)) [%]	remaining binding at 1 µM (CSNK1G2) [%]	remaining binding at 1 µM (GFR(L747-S752del, P753S)) [%]	remaining binding at 1 µM (STK39) [%]	remaining binding at 1 µM (CAMK1) [%]	remaining binding at 1 µM [3] [%]	remaining binding at 1 µM (PCTK2) [%]	remaining binding at 1 µM (JNK1) [%]	further results
CCN1CCN(Cc2cc(NC(=O)c3ccc(C)c(-c4ccc5nc(NC(=O)C6CC6)cn5n4)c3)cc(C(F)(F)F)c2)CC1 [Compound I-2, 3-(2-(cyclopropanecarboxamido)imidazo[1,2-b]pyridazin-6-yl)-N-(3-((4-ethylpiperazin-1-yl)methyl)-5-(trifluoromethyl)phenyl)-4-methylbenzamide]	76	100	96	0.05	5.6	90	85	7	100	100	73	100	84	92	19	74	92	98	1.8	96	remaining binding at 1 µM (S6K1): 52%; remaining binding at 1 µM (FLT1): 3.2%; remaining binding at 1 µM (PIP5K2B): 93%; remaining binding at 1 µM (EPHB2): 0%; remaining binding at 1 µM (ALK): 8.7%; remaining binding at 1 µM (RIPK4): 98%; remaining binding at 1 µM (MEK2): 95%; remaining binding at 1 µM (SgK110): 75%; remaining binding at 1 µM (HASPIN): 87%; remaining binding at 1 µM (MAP3K2): 28%; remaining binding at 1 µM [4]: 5.1%; remaining binding at 1 µM (LIMK2): 96%; remaining binding at 1 µM (ACVR1B): 99%; remaining binding at 1 µM (PHKG1): 99%; remaining binding at 1 µM (ABL2): 0.4%; remaining binding at 1 µM (PIK3CA(M1043I)): 100%; remaining binding at 1 µM (BMPR1A): 99%; remaining binding at 1 µM (TNNI3K): 56%
CCN1CCN(Cc2cc(NC(=O)c3ccc(C)c(-c4ccc5nc(NC(=O)C6CC6)cn5c4)c3)cc(C(F)(F)F)c2)CC1 [Compound I-6, 3-(2-(cyclopropanecarboxamido)imidazo[1,2-a]pyridin-6-yl)-N-(3-((4-ethylpiperazin-1-yl)methyl)-5-(trifluoromethyl)phenyl)-4-methylbenzamide]	71	96	92	0	4.2	93	94	60	92	95	98	98	100	100	12	93	95	89	1.3	96	remaining binding at 1 µM (S6K1): 49%; remaining binding at 1 µM (FLT1): 3.2%; remaining binding at 1 µM (PIP5K2B): 86%; remaining binding at 1 µM (EPHB2): 0%; remaining binding at 1 µM (ALK): 16%; remaining binding at 1 µM (RIPK4): 100%; remaining binding at 1 µM (MEK2): 95%; remaining binding at 1 µM (SgK110): 57%; remaining binding at 1 µM (HASPIN): 64%; remaining binding at 1 µM (MAP3K2): 78%; remaining binding at 1 µM [4]: 9.4%; remaining binding at 1 µM (LIMK2): 100%; remaining binding at 1 µM (ACVR1B): 94%; remaining binding at 1 µM (PHKG1): 93%; remaining binding at 1 µM (ABL2): 0.4%; remaining binding at 1 µM (PIK3CA(M1043I)): 73%; remaining binding at 1 µM (BMPR1A): 92%; remaining binding at 1 µM (TNNI3K): 36%
